Experiments:
[1] = target: Insulin-like growth factor 1 receptor (Homo sapiens) (UniProt P08069); assay: Inhibition of human IGF-1R assessed as residual activity at 1 uM relative to control
[2] = target: T1, Phosphatidylinositol 3-kinase C2 domain-containing subunit gamma (Homo sapiens) (UniProt O75747); assay: Inhibition of human PI3KC2gamma assessed as residual activity at 1 uM relative to control
T1 sequence (whole entry): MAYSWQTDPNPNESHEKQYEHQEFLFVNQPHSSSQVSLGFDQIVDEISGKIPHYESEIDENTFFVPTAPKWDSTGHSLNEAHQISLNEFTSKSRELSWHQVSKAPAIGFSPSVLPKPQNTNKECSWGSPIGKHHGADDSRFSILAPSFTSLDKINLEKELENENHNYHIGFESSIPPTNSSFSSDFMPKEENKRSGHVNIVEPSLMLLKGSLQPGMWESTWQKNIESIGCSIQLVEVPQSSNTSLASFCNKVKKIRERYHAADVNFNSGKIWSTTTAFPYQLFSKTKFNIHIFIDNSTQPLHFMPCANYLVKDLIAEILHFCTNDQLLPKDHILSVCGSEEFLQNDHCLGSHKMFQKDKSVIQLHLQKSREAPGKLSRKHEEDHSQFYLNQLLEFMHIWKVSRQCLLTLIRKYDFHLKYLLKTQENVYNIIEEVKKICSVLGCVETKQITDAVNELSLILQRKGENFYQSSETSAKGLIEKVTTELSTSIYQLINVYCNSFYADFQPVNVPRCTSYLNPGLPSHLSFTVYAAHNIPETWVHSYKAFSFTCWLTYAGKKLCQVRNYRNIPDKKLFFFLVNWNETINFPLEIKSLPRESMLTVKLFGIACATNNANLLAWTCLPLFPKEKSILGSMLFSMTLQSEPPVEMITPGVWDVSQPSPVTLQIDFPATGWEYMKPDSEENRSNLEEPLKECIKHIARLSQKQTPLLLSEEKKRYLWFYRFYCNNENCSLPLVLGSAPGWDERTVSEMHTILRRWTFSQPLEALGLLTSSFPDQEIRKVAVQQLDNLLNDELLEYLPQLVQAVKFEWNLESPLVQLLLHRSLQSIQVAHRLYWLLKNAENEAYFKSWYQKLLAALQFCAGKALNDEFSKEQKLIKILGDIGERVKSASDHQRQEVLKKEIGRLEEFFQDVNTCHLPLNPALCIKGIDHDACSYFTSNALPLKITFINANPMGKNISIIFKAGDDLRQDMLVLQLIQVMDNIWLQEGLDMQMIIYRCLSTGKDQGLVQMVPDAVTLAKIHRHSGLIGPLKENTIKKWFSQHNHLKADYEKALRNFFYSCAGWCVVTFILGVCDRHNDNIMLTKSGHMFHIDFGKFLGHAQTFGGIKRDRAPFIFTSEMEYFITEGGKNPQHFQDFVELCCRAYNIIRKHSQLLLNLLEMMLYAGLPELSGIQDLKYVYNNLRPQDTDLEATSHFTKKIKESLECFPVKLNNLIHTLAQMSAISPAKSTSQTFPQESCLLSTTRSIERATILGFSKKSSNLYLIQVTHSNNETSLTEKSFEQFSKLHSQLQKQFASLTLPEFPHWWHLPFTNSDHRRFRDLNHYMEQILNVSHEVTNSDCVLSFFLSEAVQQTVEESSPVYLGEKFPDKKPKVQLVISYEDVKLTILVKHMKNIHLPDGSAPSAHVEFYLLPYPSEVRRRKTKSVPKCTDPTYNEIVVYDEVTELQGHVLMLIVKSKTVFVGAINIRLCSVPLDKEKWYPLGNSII

[3] = target: Serine/threonine-protein kinase pim-2 (Homo sapiens) (UniProt Q9P1W9); assay: Inhibition of human PIM-2 assessed as residual activity at 1 uM relative to control
Serine/threonine-protein kinase pim-2 (Homo sapiens), sequence (Q9P1W9 whole entry, looked up): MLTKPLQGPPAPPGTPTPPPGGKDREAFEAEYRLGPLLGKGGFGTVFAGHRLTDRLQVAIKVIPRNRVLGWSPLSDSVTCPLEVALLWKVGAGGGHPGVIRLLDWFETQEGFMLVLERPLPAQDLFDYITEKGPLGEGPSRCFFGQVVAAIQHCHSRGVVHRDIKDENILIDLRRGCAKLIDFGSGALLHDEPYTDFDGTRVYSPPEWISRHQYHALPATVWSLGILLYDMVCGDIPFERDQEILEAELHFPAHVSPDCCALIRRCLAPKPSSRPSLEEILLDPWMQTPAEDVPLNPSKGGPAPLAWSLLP

[4] = target: Serine/threonine-protein kinase PAK 2 (Homo sapiens) (UniProt Q13177); assay: Inhibition of human PAK2 assessed as residual activity at 1 uM relative to control
[5] = target: Protein kinase C theta type (Homo sapiens) (UniProt Q04759); assay: Inhibition of human PKC-theta assessed as residual activity at 1 uM relative to control
Protein kinase C theta type (Homo sapiens), sequence (Q04759 whole entry, looked up): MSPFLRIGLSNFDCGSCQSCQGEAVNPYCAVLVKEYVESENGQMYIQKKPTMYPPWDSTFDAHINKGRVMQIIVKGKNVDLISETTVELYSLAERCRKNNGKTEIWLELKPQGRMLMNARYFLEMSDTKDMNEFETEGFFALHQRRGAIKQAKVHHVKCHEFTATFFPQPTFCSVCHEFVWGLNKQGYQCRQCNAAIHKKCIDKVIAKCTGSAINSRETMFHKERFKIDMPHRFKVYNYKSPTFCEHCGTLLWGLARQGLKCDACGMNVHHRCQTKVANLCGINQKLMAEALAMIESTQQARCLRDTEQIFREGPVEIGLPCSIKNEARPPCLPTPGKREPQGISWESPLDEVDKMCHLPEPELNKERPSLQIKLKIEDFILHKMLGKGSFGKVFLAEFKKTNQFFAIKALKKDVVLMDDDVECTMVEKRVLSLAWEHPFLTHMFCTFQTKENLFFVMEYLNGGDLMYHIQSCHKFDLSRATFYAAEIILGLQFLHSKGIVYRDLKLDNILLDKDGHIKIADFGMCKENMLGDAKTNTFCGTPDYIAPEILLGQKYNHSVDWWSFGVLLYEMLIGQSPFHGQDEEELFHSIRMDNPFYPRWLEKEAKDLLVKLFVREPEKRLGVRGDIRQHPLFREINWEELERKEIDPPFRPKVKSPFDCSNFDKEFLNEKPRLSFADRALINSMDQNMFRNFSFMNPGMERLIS

Homo sapiens = organism: Homo sapiens; assay: Inhibition of human PKA assessed as residual activity at 1 uM relative to control
[6] = target: Proto-oncogene tyrosine-protein kinase ROS (Homo sapiens) (UniProt P08922); assay: Inhibition of human ROS assessed as residual activity at 1 uM relative to control
[7] = target: T2, NUAK family SNF1-like kinase 1 (Homo sapiens) (UniProt O60285); assay: Inhibition of human ARK5 assessed as residual activity at 1 uM relative to control
T2 sequence (whole entry): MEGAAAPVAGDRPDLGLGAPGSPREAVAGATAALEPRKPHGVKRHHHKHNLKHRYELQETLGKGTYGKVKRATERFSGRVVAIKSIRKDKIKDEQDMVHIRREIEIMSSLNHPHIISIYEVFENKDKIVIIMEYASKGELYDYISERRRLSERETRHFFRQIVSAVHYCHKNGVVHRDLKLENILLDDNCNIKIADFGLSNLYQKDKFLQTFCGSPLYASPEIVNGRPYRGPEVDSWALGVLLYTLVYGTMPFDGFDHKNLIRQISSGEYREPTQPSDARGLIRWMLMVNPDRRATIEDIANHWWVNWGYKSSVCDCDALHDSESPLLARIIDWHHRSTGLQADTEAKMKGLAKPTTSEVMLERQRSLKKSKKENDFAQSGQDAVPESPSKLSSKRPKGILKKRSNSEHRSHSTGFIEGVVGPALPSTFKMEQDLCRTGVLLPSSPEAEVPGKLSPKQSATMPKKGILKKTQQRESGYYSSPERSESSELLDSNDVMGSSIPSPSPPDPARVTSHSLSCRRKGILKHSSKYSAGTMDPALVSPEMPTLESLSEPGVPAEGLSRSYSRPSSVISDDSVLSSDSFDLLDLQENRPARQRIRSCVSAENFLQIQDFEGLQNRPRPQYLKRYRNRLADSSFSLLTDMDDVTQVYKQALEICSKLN

[8] = target: Macrophage colony-stimulating factor 1 receptor (Homo sapiens) (UniProt P07333); assay: Inhibition of human FMS assessed as residual activity at 1 uM relative to control
[9] = target: Proto-oncogene tyrosine-protein kinase Src (Homo sapiens) (UniProt P12931); assay: Inhibition of human SRC (1 to 530) assessed as residual activity at 1 uM relative to control
[10] = target: Vascular endothelial growth factor receptor 2 (Homo sapiens) (UniProt P35968); assay: Inhibition of human KDR assessed as residual activity at 1 uM relative to control
Vascular endothelial growth factor receptor 2 (Homo sapiens), sequence (P35968 whole entry): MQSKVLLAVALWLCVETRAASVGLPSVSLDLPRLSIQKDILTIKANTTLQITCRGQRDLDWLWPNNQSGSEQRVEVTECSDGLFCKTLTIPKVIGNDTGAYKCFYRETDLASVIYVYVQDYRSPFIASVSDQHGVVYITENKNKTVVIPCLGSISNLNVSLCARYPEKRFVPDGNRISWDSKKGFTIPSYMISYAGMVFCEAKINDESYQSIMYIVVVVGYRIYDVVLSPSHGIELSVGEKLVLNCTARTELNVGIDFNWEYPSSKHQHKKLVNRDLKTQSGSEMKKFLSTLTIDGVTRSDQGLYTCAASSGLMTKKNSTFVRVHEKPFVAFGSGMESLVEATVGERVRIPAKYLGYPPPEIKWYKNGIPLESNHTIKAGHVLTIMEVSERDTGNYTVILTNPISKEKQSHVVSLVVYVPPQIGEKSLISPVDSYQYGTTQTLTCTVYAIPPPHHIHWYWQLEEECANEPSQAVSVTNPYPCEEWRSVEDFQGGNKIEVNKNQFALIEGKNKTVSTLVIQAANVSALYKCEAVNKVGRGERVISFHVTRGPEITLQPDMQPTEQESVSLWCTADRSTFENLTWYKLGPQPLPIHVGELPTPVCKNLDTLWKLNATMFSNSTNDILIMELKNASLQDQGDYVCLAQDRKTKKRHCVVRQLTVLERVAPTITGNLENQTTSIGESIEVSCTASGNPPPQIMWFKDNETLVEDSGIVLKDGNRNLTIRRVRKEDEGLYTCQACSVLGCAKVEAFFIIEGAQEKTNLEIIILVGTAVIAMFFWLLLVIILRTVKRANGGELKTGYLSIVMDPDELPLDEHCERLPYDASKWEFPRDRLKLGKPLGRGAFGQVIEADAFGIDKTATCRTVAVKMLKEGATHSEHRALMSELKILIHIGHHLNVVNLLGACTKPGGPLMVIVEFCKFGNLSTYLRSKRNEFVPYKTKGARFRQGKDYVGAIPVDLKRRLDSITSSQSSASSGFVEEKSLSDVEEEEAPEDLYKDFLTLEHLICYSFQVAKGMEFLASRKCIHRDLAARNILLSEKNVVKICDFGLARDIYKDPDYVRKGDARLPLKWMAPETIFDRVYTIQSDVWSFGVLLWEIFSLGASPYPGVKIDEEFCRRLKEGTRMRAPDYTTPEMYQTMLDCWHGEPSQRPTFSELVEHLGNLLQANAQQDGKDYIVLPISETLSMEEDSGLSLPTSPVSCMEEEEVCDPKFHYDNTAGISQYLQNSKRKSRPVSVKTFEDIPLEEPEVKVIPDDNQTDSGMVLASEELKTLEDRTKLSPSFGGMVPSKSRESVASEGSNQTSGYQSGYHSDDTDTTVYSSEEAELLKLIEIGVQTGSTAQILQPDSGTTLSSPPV

[11] = target: Rho-associated protein kinase 2 (Homo sapiens) (UniProt O75116); assay: Inhibition of human ROCK-2 assessed as residual activity at 1 uM relative to control
Rho-associated protein kinase 2 (Homo sapiens), sequence (O75116 whole entry, looked up): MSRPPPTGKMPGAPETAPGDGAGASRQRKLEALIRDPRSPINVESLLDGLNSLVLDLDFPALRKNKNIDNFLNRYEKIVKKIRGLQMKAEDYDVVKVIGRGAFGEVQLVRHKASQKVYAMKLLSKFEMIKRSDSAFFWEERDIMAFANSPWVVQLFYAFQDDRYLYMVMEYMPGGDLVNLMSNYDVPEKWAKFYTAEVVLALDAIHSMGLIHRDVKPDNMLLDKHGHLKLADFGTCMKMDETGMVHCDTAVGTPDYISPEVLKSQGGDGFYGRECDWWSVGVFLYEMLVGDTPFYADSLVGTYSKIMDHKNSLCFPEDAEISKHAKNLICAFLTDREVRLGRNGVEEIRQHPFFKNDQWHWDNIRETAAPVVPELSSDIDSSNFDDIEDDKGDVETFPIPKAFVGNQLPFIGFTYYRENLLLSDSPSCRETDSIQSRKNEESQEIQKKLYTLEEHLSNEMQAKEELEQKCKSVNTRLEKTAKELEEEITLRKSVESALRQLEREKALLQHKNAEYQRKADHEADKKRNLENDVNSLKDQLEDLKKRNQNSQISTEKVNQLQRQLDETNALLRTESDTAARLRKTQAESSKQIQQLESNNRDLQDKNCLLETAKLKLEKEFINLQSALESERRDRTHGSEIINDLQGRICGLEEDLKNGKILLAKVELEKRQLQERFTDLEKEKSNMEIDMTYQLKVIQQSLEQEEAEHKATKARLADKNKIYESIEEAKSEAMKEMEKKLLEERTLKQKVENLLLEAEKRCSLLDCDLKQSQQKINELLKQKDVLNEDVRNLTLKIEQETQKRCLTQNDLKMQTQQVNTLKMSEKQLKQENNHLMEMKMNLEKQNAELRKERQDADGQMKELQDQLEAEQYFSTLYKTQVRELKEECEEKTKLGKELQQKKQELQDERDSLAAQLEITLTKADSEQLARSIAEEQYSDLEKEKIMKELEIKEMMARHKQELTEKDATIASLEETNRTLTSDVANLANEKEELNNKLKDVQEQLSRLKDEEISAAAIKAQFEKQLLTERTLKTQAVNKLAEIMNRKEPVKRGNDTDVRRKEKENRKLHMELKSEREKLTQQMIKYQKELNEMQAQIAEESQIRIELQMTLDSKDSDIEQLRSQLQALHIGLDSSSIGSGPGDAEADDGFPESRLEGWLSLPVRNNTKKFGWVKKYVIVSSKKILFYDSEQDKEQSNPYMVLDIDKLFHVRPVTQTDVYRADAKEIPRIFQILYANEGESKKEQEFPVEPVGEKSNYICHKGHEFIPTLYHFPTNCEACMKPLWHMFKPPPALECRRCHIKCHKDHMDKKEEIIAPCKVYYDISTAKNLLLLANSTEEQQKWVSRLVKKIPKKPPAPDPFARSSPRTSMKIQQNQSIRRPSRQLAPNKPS

[12] = system: Fibroblast growth factor receptor 1 (Homo sapiens), P11362 [V561M]; assay: Inhibition of human FGFR1 V561M mutant assessed as residual activity at 1 uM relative to control
[13] = target: Tyrosine-protein kinase receptor UFO (Homo sapiens) (UniProt P30530); assay: Inhibition of human AXL assessed as residual activity at 1 uM relative to control

Insulin-like growth factor 1 receptor (Homo sapiens), sequence (P08069 31-736 limits assumed): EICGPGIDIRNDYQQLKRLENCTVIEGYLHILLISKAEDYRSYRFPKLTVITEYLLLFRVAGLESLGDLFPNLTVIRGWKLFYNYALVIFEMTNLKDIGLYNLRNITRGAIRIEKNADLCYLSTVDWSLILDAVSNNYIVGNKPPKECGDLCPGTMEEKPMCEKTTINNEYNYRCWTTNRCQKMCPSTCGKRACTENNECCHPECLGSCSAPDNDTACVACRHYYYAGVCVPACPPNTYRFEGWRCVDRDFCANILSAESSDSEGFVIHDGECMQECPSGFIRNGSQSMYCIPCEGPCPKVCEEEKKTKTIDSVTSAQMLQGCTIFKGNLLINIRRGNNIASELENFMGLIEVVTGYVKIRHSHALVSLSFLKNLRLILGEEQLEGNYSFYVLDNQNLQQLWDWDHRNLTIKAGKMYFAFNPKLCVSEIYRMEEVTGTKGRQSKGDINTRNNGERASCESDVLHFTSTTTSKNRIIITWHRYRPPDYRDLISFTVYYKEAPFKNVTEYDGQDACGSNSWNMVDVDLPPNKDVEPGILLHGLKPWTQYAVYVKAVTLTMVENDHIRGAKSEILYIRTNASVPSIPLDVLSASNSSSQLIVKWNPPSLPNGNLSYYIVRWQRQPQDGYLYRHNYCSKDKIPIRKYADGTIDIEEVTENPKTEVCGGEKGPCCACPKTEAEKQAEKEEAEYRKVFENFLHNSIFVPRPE
Insulin-like growth factor 1 receptor (Homo sapiens), sequence (P08069 741-1367 limits assumed): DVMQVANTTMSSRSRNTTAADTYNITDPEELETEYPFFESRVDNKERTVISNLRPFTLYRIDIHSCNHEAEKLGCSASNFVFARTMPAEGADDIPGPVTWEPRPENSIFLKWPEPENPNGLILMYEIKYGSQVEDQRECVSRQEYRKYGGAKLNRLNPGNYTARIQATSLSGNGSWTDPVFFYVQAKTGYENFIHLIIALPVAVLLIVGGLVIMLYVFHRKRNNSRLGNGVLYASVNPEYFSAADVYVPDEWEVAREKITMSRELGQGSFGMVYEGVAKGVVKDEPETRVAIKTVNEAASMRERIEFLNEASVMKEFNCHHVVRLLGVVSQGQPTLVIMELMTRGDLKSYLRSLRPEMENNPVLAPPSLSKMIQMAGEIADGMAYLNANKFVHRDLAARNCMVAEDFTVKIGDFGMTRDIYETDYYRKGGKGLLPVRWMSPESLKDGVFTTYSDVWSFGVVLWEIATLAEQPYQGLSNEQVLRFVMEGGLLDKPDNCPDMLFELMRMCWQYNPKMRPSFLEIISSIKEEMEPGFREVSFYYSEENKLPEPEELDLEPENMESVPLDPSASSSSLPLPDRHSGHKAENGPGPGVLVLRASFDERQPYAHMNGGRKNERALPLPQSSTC

Activity [1] [%]	Activity [2] [%]	Activity [3] [%]	Activity [4] [%]	Activity [5] [%]	Activity (Homo sapiens) [%]	Activity [6] [%]	Activity [7] [%]	Activity [8] [%]	Activity [9] [%]	Activity [10] [%]	Activity [11] [%]	Activity [12] [%]	Activity [13] [%]	Compound
108	92	90	90	89	89	93	68	63	25	14	108	85	98	COc1ccc(-c2nc3cc(-c4csc(C(=O)NCC(C)C)c4)cnc3[nH]2)cc1
105	94	94	94	98	97	82	76	70	23	23	102	90	98	COc1ccc(-c2nc3cc(-c4csc(C(=O)NCCC(C)C)c4)cnc3[nH]2)cc1
98	94	93	92	90	82	81	79	70	47	31	108	104	103	COc1ccc(-c2nc3cc(-c4csc(C(=O)NCC(C)(C)C)c4)cnc3[nH]2)cc1

Source: ChEMBL document CHEMBL3124838, “Discovery of 6-aryl-azabenzimidazoles that inhibit the TBK1/IKK-ε kinases” (Bioorg Med Chem Lett, 2014)
